Laboratory results taken from PMC8307831, “Preparation of Monoclonal Antibody and Development of Indirect Competitive Enzyme-Linked Immunosorbent Assay and Fluorescence-Linked Immunosorbent Assay for Detecting 3-Amino-5-methylmorpholino-2-oxazolidinone (AMOZ) in Edible Animal Tissue” (Molecules, 2021).
Converted amounts (≈) assume the structure as drawn.

How the values were obtained:
mAb 5C10/3A8 [1] = assay: QD-based fluorescence-linked immunosorbent assay (FLISA); type: binding; conditions: 655 nm QDs-conjugated goat anti-mouse IgG
Procedure: The procedures for FLISA and ic-ELISA were identical before the secondary antibody was added. More specifically, after washing with PBST for three times, 100 μL of 655 nm QDs-conjugated goat anti-mouse IgG (1:10,000 dilution) was added to each well and incubated at 37 °C for 45 min. After three washes with PBST, a SpectraMax M2e Microplate Reader (Molecular Devices, San Jose, CA, USA) was used to measure the fluorescence signals from samples with excitation/emission at 360/655 nm. The fluorescence intensities were identified as B0 and B for the control and testing sample. The standard curve was established by plotting the form (B/B0) 100% against the 2-NP-AMOZ concentration.

mAb 5C10/3A8 [2] = assay: indirect competitive ELISA (ic-ELISA) with CPAMOZ-OVA coating antigen; type: binding, mouse; conditions: for Cross-Reactivity: (IC50 of 2-NP-AMOZ / IC50 of compound tested) x 100%, 2-NP-AMOZ set to 100%; for IC50: mAb 5C10/3A8, competition with coating antigen CPAMOZ-OVA
Procedure: To carry out 2-NP-AMOZ ic-ELISA, 96-well plates were first coated with 100 μL of CPAMOZ-OVA in 50 mM of carbonate buffer solution (pH = 9.6) overnight at 4 °C. […] The plates were washed again three times, after which 50 μL of different concentrations of 2-NP-AMOZ analytes and 50 μL of the obtained mAb were added into each well, incubated at 37 °C for 1 h, and the plates were washed three times with the PBST. Subsequently, 100 μL of horseradish peroxidase-labeled goat anti-mouse IgG (1:10,000 dilution) was added to the wells and incubated at 37 °C for 1 h. This was followed by a washing step of three washes with PBST solution, after which 100 μL of substrate solution was added to each well and incubated for 15 min in darkness. The reaction was stopped by adding 50 μL/well of 2 M of H2SO4. The absorbance at 450 nm was measured on a Tecan Sunrise 2.5 microplate reader (SUNRISE, Austria). A calibration curve was constructed by plotting (B/B0) × 100% vs. log C, where B and B0 represent the absorbance of the analyte at the known concentrates (standards) and at zero concentration of the analyte, respectively.
The extent of cross-reactivity was evaluated by determining IC50 values using an ic-ELISA as described above. […] The concentration of the standard solutions of the compounds was set from 0.01 to 1000 ng/mL.

monoclonal antibodies = tested on: monoclonal antibodies; design: method as in not given; conditions: published mAb-based homologous ic-ELISAs and fluoroimmunoassay; range over the literature; ref not given; cited from earlier work

Structure (SMILES) | IC50 (mAb 5C10/3A8 [1]) [ng/mL] | Cross-Reactivity (mAb 5C10/3A8 [2]) [%] | IC50 (mAb 5C10/3A8 [2]) [µg/mL] | IC50 (monoclonal antibodies) [µg/mL]
O=C1OC(CN2CCOCC2)CN1/N=C/c1ccccc1[N+](=O)[O-] (centres unmarked) [2-NP-AMOZ] | 0.09 (≈ 0.000269 µM) | 100 | 0.00011 (≈ 0.000329 µM) | 0.00014 to 0.0043
NC(=O)N/N=C/c1ccc([N+](=O)[O-])o1 [Nitrofurazone, nitrofurazone] |  | <0.01 | >1 | 
O=C(O)c1ccc(/C=N/N2CC(CN3CCOCC3)OC2=O)cc1 (centres unmarked) [CPAMOZ, carboxyphenyl AMOZ] |  | 122.2 | 9e-05 (≈ 0.00027 µM) | 
NN1CC(CN2CCOCC2)OC1=O (centres unmarked) [AMOZ, 3-amino-5-morpholinomethyl-2-oxazolidinone] |  | 10.7 | 0.00103 (≈ 0.00512 µM) | 0.00115 to 0.00533
O=C1OCCN1/N=C/c1ccccc1[N+](=O)[O-] [2-NP-AOZ] |  | <0.01 | >1 | 
O=Cc1ccccc1[N+](=O)[O-] [2-NBA, 2-nitrobenzaldehyde] |  | <0.01 | >1 | 
NNC(N)=O [SEM, semicarbazide] |  | <0.01 | >1 | 
O=C1OC(CN2CCOCC2)CN1/N=C/c1ccc([N+](=O)[O-])o1 (centres unmarked) [Furaltadone, furaltadone] |  | 8.9 | 0.00124 (≈ 0.00382 µM) | 
O=Cc1ccc(C(=O)O)cc1 [4-CBA, 4-carboxybenzaldehyle] |  | <0.01 | >1 | 
O=C1CN(/N=C/c2ccc([N+](=O)[O-])o2)C(=O)N1 [Nitrofurantoin, nitrofurantoin] |  | <0.01 | >1 | 
NN1CC(=O)NC1=O [AHD, 1-aminohydantoin] |  | <0.01 | >1 | 
O=C1CN(/N=C/c2ccccc2[N+](=O)[O-])C(=O)N1 [2-NP-AHD] |  | <0.01 | >1 | 
NN1CCOC1=O [AOZ, 3-amino-2-oxazolidinone] |  | <0.01 | >1 | 
